Measurements published in PubChem BioAssay AID179 (DTP/NCI, 2004).
pEC50, pIC50: −log10 of the molar value. Calls of active or inactive are those of the source.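 How the source made its calls: active means compounds giving half or more protection of infected cells from virus-caused growth loss, again on retest; inactive means the rest.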

System: CEM cells HIV-1 protection, formazan growth assay
Test: NCI AIDS Antiviral Assay
Details: for pIC50: measured here: growth of uninfected CEM cells
Outline: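 Steps: treat uninfected and HIV-1-infected human CEM cells at five drug levels; quantify growth by soluble formazan; retest any compound reaching 50% protection; classify actives from the retest.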

Row | SMILES | pEC50 | pIC50 | outcome
1 | Cn1c(=Nc2ccccc2[N+](=O)[O-])sc2ccccc21 | < 3.70 | < 4.00 | –
2 | CCOC(=O)C1(Cc2c[nH]c3ccccc23)C(O)CCCN1C(C)=O (stereo not drawn) | < 3.70 | 3.81 | –
3 | CCCCCCn1c(SC)nc(COC(=O)NC)c1COC(=O)NC | < 3.70 | 4.45 | –
4 | Cc1nc(C2CCC3C4CCC5=CC(=O)CCC5(C)C4CCC23C)co1 (stereo not drawn) | – | – | inactive
5 | CCN(CC)C(=S)SCn1ncc2ccc([N+](=O)[O-])cc21 | < 3.97 | 5.00 | –
6 | CCOc1cc2c(cc1O)C(=O)C[C@@H]1[C@@H]2CC[C@]2(C)[C@@H](O)CC[C@@H]12 | < 5.70 | 7.10 | –
7 | COc1ccc(/C=C(\C#N)c2ccc(C)cc2)cc1OC | < 3.70 | 4.48 | –
8 | Cn1c2ccc3cc2c(=S)c2cc(ccc21)OCCOCCOCCOCCOCCOCCO3 | < 3.70 | 3.73 | –
9 | CN1CC2(CO)C(c3ccccn3)N(C)C(c3ccccn3)C(CO)(C1)C2O (stereo not drawn) | < 3.94 | < 3.94 | –
10 | CCC1(c2ccc(OC)c(OC)c2)CCN(S(=O)(=O)c2ccc(C)cc2)C1 (stereo not drawn) | < 3.70 | < 3.70 | –
11 | CCCCCC(/C=C/C1CCC(=O)C1)OCOCCOC (stereo not drawn) | < 3.70 | 4.74 | –
12 | COc1cc(/C=C/C(C)=O)ccc1OP(=O)(O)O | < 3.70 | < 3.70 | –
13 | Cc1n[nH]c(=O)n1-c1cccnc1 | < 3.70 | < 3.70 | –
14 | Cc1nc2ccccc2c(=O)n1N1C2CCCC21 (stereo not drawn) | < 3.70 | < 3.70 | –
15 | O=C1c2ccccc2C2CC1c1ccccc12 (stereo not drawn) | < 3.67 | < 3.70 | –
16 | CCO/C=C(\C(=O)OC)S(=O)(=O)c1ccc(C)cc1 | < 3.70 | < 3.70 | –
17 | COC(=O)c1ccc(NCc2cc(OC)ccc2OC)cc1 | < 3.70 | 4.62 | –
18 | CO[C@@H]1[C@H](O)CC[C@]2(CO2)[C@H]1[C@@]1(C)O[C@@H]1CC=C(C)C | < 3.70 | 4.07 | –
19 | CC1(C)CCc2cc3c(O)c(-c4ccccc4)c(=O)oc3cc2O1 | < 3.70 | 4.11 | –
20 | CCOC(=O)C1C(c2ccc(F)cc2)C(C(=O)OCC)C(O)(C(F)(F)F)OC1(O)C(F)(F)F (stereo not drawn) | – | – | inactive
21 | CN1CCC2(CC1)C(C#N)C(=O)NC(=O)C2C#N (stereo not drawn) | < 3.47 | < 3.47 | –
22 | Oc1cc2c(cc1O)C1c3ccc(O)c(O)c3OCC1(O)C2 (stereo not drawn) | < 3.70 | 5.02 | –
23 | O=S(=O)(c1ccccc1)N1CC2(CN(S(=O)(=O)c3ccccc3)c3ccccc31)CN(S(=O)(=O)c1ccccc1)c1ccccc1N(S(=O)(=O)c1ccccc1)C2 | < 3.70 | < 3.70 | –

Row | SMILES | pEC50 | pIC50 | outcome
24 | O=C(Nc1ccccc1)N(CCCCN(Cc1ccccc1)C(=O)Nc1ccccc1)Cc1ccccc1 | < 3.70 | 3.95 | –
25 | COC(=O)C1C2CCCN2OC1(C)CO (stereo not drawn) | < 3.70 | < 3.70 | –
26 | FC(F)(F)c1ccc2c3c(c4c(c2n1)OCN(Cc1ccc(Cl)cc1Cl)C4)CN(Cc1ccc(Cl)cc1Cl)CO3 | 6.55 | 5.36 | –
27 | CC(=O)OC1SC(OC(C)=O)C2OC(=O)OC12 (stereo not drawn) | < 3.06 | 3.81 | –
28 | O=c1n(CCCCn2c(=O)n(CC3CS3)c3ccccc32)c2ccccc2n1CC1CS1 (stereo not drawn) | < 4.54 | 5.04 | –
29 | CC[n+]1c2ccc(C)cc2nc2c3ccccc3c(N)cc21 | < 3.70 | 5.99 | –
30 | COc1ccc2[nH]c3c(c2c1)CCc1ccccc1-3 | – | – | inactive
31 | CC1=C(C(=O)Nc2cccc3c2C(=O)NC3=O)CC(C(=O)Nc2cccc3c2C(=O)NC3=O)=C(C)N1 | < 3.70 | < 3.70 | –
32 | Cc1cnnc2c3ccccc3nn12 | < 3.91 | < 3.91 | –
33 | CCOC(=O)/C(=C\c1ccc(N(C)C)cc1)P(=O)(OCC)OCC | < 3.29 | 4.26 | –
34 | CCCCCCCCCCCCCCCC(=O)NCC(COP(=O)([O-])OCC[N+](C)(C)C)OC (stereo not drawn) | – | – | inactive
35 | Clc1ccc(C2NN=C3c4ccccc4OCC32)cc1 (stereo not drawn) | < 3.70 | 5.37 | –
36 | NC(=S)N/N=C1/CCCC2CCCC[C@@H]12 (stereo partly drawn) | < 3.70 | < 3.70 | –
37 | O=C(c1ccccc1)N1CCC(Nc2nccs2)O1 (stereo not drawn) | < 3.70 | < 3.70 | –
38 | COc1ccc(C(=O)NO)cc1 | < 3.70 | 4.60 | –
39 | S=c1sc(-c2ccc(Cl)cc2)nn1CSc1nc2ccccc2[nH]1 | < 3.70 | 4.50 | –
40 | O=C(Cc1ccccc1)NN1C(=O)/C(=C\c2ccc([N+](=O)[O-])cc2)SC1=Nc1ccccc1 | < 4.25 | < 4.25 | –
41 | OCC1C(OCc2ccccc2)C(OCc2ccccc2)C(OCc2ccccc2)CN1Cc1ccccc1 (stereo not drawn) | – | – | inactive
42 | CCOC(=O)C1=C(C)N(NC(=O)Nc2ccccc2)C2(N)N(NC(=O)Nc3ccccc3)C(C)=C(C(=O)OCC)C12C#N (stereo not drawn) | < 4.50 | < 4.50 | –
43 | CC1(C)S[C@@H]2[C@H](NC(=O)C3(N)CCCCC3)C(=O)N2[C@H]1C(=O)O | < 3.70 | < 3.70 | –
44 | O=C1C(N=Nc2ccc([N+](=O)[O-])cc2)Sc2nc3ccccc3n21 (stereo not drawn) | < 3.70 | 3.75 | –
45 | O=C(c1ccc(Br)cc1)n1c2ccc(Br)cc2c2nc3ccccc3nc21 | < 4.30 | < 4.30 | –
46 | O=C1c2c(n(Cc3ccccc3)c(=O)n2Cc2ccccc2)C(=O)N1Cc1ccccc1 | < 4.77 | < 4.77 | –

Row | SMILES | pEC50 | pIC50 | outcome
47 | O=C1C2CC3OC3CC2C(=O)N1CCCCCCN1C(=O)C2CC3OC3CC2C1=O (stereo not drawn) | < 3.70 | < 3.70 | –
48 | CN(C)CCC(O)(Cc1ccccc1)c1cccc(Cl)c1 (stereo not drawn) | < 3.70 | 4.06 | –
49 | C/C(=N\O)c1sc(-n2nc(-c3ccccc3)cc2-c2ccccc2)nc1C | < 4.02 | 4.35 | –
50 | COc1ccc2c(c1)OC[C@@H]1c3cc(NS(=O)(=O)c4ccccc4)cc(OC)c3O[C@H]21 | < 3.70 | 4.74 | –
51 | O=C1CSC(=S)N1c1ccc2c(c1)OCO2 | < 3.70 | 4.10 | –
52 | CN(C)c1ccc(-c2[nH]c(=O)c3ccccc3[n+]2C)cc1 | < 3.70 | 4.18 | –
53 | COc1ccccc1NC(=O)/C(Cc1nc2ccc([N+](=O)[O-])cc2[nH]c1=O)=N\NC(=O)C[N+](C)(C)C | < 3.61 | 4.30 | –
54 | CC(=O)c1sc(/N=C\c2c(O)c3ccccc3oc2=O)nc1C | < 3.70 | 4.41 | –
55 | CC(=O)OCC(=O)[C@@]1(O)CC[C@H]2[C@@H]3CCC4=CC(=O)C=C[C@]4(C)[C@@]3(F)[C@@H](O)C[C@@]21C | – | – | inactive
56 | O=[N+]([O-])c1ccc2nc(-c3ccccn3)c(-c3ccccn3)nc2c1 | < 3.70 | < 3.70 | –
57 | OC1CC1Sc1ccccc1 (stereo not drawn) | – | – | inactive
58 | O=Nc1c(-c2ccccc2)nc2cnccn12 | < 3.70 | 5.23 | –
59 | CCN(CC)C1CC(O[C@H]2C[C@](O)(C(=O)CO)Cc3c(O)c4c(c(O)c32)C(=O)c2c(OC)cccc2C4=O)OC(C)C1O (stereo partly drawn) | – | – | inactive
60 | O=c1n(CCCN2CCN(c3cccc(Cl)c3)CC2)nc2n1-c1ccc3ccccc3c1SC2 | < 3.70 | < 3.70 | –
61 | O=c1[nH]c(=O)n(C2CC(O)C(CO)O2)cc1C(OCC(F)(F)F)OCC(F)(F)F (stereo not drawn) | < 3.60 | 4.92 | –
62 | Cc1c(Cl)ccc2c(=O)c3cccc(CC(=O)O)c3oc12 | < 3.70 | 4.10 | –
63 | NNC(=O)CNC(=O)CSc1nnc(COc2ccc(Cl)cc2)n1-c1ccccc1 | < 3.70 | 4.25 | –
64 | CSc1nc(=O)c2nc(-c3cccs3)c(-c3cccs3)nc2n1C | < 4.00 | < 4.00 | –
65 | N/N=C(\CCN1CCCC1)CC(c1ccccc1)c1c(O)c2ccccc2oc1=O (stereo not drawn) | < 4.23 | < 4.23 | –
66 | Nc1ncnc2c1ncn2C1OC(CO)C(O)C(O)C1O (stereo not drawn) | < 3.70 | < 3.70 | –
67 | N#CCCN(CCN(CCC#N)C(=O)Nc1ccccc1)C(=O)Nc1ccccc1 | < 3.70 | < 3.70 | –
68 | COc1cccc(/C=C(\C#N)C(=O)O)c1 | < 2.91 | 3.80 | –
69 | CN(C)c1ccc(-c2c(C#N)c(-c3ccccc3)n(NS(=O)(=O)c3ccccc3)c(=O)c2C#N)cc1 | < 3.70 | 4.88 | –

Row | SMILES | pEC50 | pIC50 | outcome
70 | CCOC(=O)c1ccc(CS(=O)(=O)c2ccc(OC)cc2)c([N+](=O)[O-])c1 | < 4.02 | < 4.02 | –
71 | Cc1oc2c(C)c3oc(=O)cc(C)c3cc2c1CO | < 3.70 | 4.52 | –
72 | CCOC(=O)c1c(SC(=O)c2ccc(C(C)(C)C)cc2)n(-c2ccccc2)c(=S)n(-c2ccccc2)c1=O | < 3.70 | 4.56 | –
73 | CCCCC1(O)CC2CC1C(C)C2(C)C (stereo not drawn) | < 3.70 | < 3.70 | –
74 | Cn1c(=O)c2ccccc2[n+]2c(-c3cccc([N+](=O)[O-])c3)csc12 | < 3.70 | 3.83 | –
75 | S=c1sc2sc(=S)sc2s1 | – | – | inactive
76 | COc1ccc2c(c1)CSCC2=O | < 3.29 | < 3.70 | –
77 | O=C1Nc2ccccc2Sc2ccccc21 | 4.03 | 3.94 | –
78 | O=C1CCC(O)=C1O | < 2.66 | < 2.66 | –
79 | O=C(Nc1ccccc1)c1cc(S(=O)(=O)N2CCNC2=O)c(S)cc1Cl | 3.95 | 3.88 | –
80 | O=C(c1ccccc1)N1C(=S)N(c2ccccn2)C(=Nc2ccccc2)C1=Nc1ccccc1 | < 3.70 | 5.06 | –
81 | CC(C)C[C@H]1[C@@H](OCc2ccccc2)COS(=O)N1[C@H](C)c1ccccc1 (stereo partly drawn) | < 3.70 | 5.02 | –
82 | CCOC(=O)Cc1nnc2n(-c3ccccc3)c(=O)c3ccccc3n12 | < 4.00 | < 4.00 | –
83 | c1ccc2c3c([nH]c2c1)C1(CCCCC1)c1c([nH]c2ccccc12)C31CCCCC1 | < 5.16 | < 5.16 | –
84 | COC(=O)C1CCc2nnc(-c3ccccc3)n21 (stereo not drawn) | 3.02 | 2.99 | –
85 | CC1(O)CC(C(F)(F)F)(C(F)(F)F)OC1=O (stereo not drawn) | < 3.70 | < 3.70 | –
86 | N#CC1=CNc2sccc2S1(=O)=O | < 3.70 | < 3.70 | –
87 | CC(=O)OC[C@H]1OC(=O)C2O[C@H](c3ccccc3)OC21 (stereo partly drawn) | < 3.70 | < 3.70 | –
88 | O=S(=O)(O)c1ccc(SSc2ccc(S(=O)(=O)O)cc2)cc1 | < 3.70 | < 3.70 | –
89 | O=C1C(=O)C(Br)(Br)C(Br)=C1Br | – | – | inactive
